# Source: patent US20050054559A1, “Compounds for sustained release of orally delivered drugs” (priority 2000, published 2005)
# What was measured:
# IBAT [1] = molecular target: T1, IBAT (Homo sapiens, UniProt Q12908); test: Inhibition of radiolabeled taurocholate uptake in IBAT-transfected CHO cells; format: cell-based; set-up: expressed in transfected cells; host or cells: CHO cells; conditions: radiolabeled competition assay in transporter-expressing CHO cells
# Method: (§1) CHO cells transfected with either the IBAT or LBAT transporter were seeded into 96-well microtiter plates at 100,000 cells/well in 100 μL DMEM containing 10% serum, glutamine and Penstrep. After overnight incubation the media was removed and test compound (25 μL) added at 2× the final desired concentration. Tritiated taurocholate (50,000 CPM/well) was diluted with cold substrate to a final concentration of 5 μM and 25 μL/well of this mixture was added to the plate. After incubating for 1 h at room temperature the solution was removed and the plate washed 4× with PBS at 4° C. 200 μL/well of scintillant is added and the plate then read in a Wallac microbeta counter. The inhibition data is processed by standard methods to calculate an inhibition constant Ki for the test compound.
# IBAT [2] = molecular target: T1, IBAT; test: In vitro uptake by CHO cells transfected with IBAT, evaluated by LC-MS/MS; format: cell-based; set-up: expressed in transfected cells; host or cells: CHO cells; conditions: 0.06 to 1000 μM, 10 min
# Method: (§2) Active transport of (4) by the bile acid transport system was evaluated in vitro by incubation of (4) or glycocholate (control substrate) with untransfected CHO K1 cells or CHO cells transfected with either IBAT or LBAT. Cells (10^5 cells/mL) were incubated in 96 well plates with varying concentrations (0.06 to 1000 μM) of (4) or glycocholate for 10 min. Cells were then washed with Hank's Balanced Salt Solution (HBSS) and lysed and extracted by addition of 100 μL of water followed by sonication. Concentrations of (4) or glycocholate in cell extracts were determined by direct injection onto an API 2000 LC/MS/MS equipped with an Agilent 1100 binary pump and autosampler. Separation was achieved using a Keystone BDS Hypersil 2×50 mm column heated to 45° C. during the analysis. The mobile phases were: 0.1% formic acid in water (A) and 0.1% formic acid in acetonitrile (B). The gradient condition was: 5% B for 1 min, increasing to 90% B in 0.2 min, maintained for 2.8 min and returning to 5% B for 2 min. A TurboIonSpray source was used on the API 2000. The analysis was performed in the positive ion mode and MRM transitions of 466/412 and 562/154 were used in the analysis of glycocholate and (4), respectively. Ten microliters of the cell extracts were injected. Peaks were integrated using Analyst quantitation software. […]
# [3] = Secretion in bile following oral administration to bile duct-cannulated rats; format: in vivo, rat; conditions: single oral dose of (4) 85.25 mg/kg
# Method: Sustained release of gabapentin from a prodrug that is subject to enterohepatic recirculation requires that a proportion of the intact prodrug be absorbed after oral administration and subsequently secreted into the bile intact. The potential for enterohepatic recirculation of intact (4) was examined in rats with indwelling bile duct fistulae. […] Bile was collected continuously in aliquots over 24 hours. Plasma and bile samples were frozen at −80° C. until analyzed. Concentrations of (4) or gabapentin in plasma samples were deermined by LC/MS/MS as described in Example 38. Concentrations of intact […] in bile were similarly deermined by LC/MS/MS. Bile (20 μL) was diluted 1:1000 with methanol and injected directly onto the HPLC system. Concentrations of (4) in bile reached a maximum at ˜6 hours post-dosing and were sustained up to 24 hours.
# LBAT [4] = molecular target: T2, LBAT (Homo sapiens, UniProt Q14973); test: Inhibition of radiolabeled taurocholate uptake in LBAT-transfected CHO cells; format: cell-based; conditions: radiolabeled competition assay in transporter-expressing CHO cells
# T2 construct: expressed in transfected cells; host or cells: CHO cells
# Method: as §1
# in vivo = conditions: male, Sprague-Dawley, rat, po, 85.25 mg/kg
# Method: (§3) The pharmacokinetics of the prodrug (4) were examined in rats. Three groups of four male Sprague-Dawley rats (approx 200 g) with jugular cannulae each received one of the following treatments: A) a single bolus intravenous injection of gabapentin (25 mg/kg, as a solution in water); B) a single oral dose of gabapentin (25 mg/kg, as a solution in water) administered by oral gavage; C) a single oral dose of (4) (85.25 mg/kg, as a solution in water) administered by oral gavage. Animals were fasted overnight prior to dosing and until 4 hours post-dosing. Serial blood samples were obtained over 24 hours following dosing and blood was processed for plasma by centrifugation. Plasma samples were stored at −80° C. until analyzed. Concentrations of (4) or gabapentin in plasma samples were determined by LC/MS/MS as described in Example 35. Plasma (50 μL) was precipitated by addition of […] of methanol and supernatent was injected directly onto the LC/MS/MS system. The method was linear for gabapentin over the concentration range 0.001 to 20 ng/mL and for (4) over the concentration range 0.01 to 10 ng/mL.
# as §3, with “prodrug Cholyl-Phe-Gabapentin (7g)” for “prodrug (4)”, “of (7g) (103.5” for “of (4) (85.25”, “of (7g)” for “of (4)”, “or (2)” for “or gabapentin”, “described above.” for “described in Example 35.”, “system.” for “system. The method was linear for gabapentin over the concentration range 0.001 to 20 ng/mL and for (4) over the concentration range 0.01 to 10 ng/mL.”
# Cholylglycine Hydrolase = Cholylglycine Hydrolase (Clostridium perfringens, UniProt P54965); conditions: compared with plasma, liver or intestine
# LBAT [5] = molecular target: T2, LBAT; test: In vitro uptake by CHO cells transfected with LBAT, evaluated by LC-MS/MS; format: cell-based; conditions: 0.06 to 1000 μM, 10 min
# Method: as §2
# T2 sequence (Q14973 whole entry): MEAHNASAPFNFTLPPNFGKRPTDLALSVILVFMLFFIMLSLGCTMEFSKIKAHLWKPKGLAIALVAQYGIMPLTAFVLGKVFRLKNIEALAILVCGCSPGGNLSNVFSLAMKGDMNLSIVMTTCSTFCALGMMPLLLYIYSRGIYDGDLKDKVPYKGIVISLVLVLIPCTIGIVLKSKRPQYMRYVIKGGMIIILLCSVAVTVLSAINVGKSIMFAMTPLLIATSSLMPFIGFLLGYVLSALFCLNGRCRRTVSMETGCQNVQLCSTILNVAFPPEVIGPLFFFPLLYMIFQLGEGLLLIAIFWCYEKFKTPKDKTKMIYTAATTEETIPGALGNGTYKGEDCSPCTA
# T1 sequence (Q12908 whole entry): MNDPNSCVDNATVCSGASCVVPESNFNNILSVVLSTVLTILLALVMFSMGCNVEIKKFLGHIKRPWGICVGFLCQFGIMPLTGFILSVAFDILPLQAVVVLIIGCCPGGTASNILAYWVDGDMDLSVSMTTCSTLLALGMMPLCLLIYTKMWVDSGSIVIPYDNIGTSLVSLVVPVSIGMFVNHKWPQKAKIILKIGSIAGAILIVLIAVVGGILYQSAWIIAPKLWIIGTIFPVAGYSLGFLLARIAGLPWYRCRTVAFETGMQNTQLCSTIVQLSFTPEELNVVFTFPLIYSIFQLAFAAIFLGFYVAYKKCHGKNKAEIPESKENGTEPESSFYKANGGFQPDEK
# Sequence of Cholylglycine Hydrolase (P54965 whole entry, looked up): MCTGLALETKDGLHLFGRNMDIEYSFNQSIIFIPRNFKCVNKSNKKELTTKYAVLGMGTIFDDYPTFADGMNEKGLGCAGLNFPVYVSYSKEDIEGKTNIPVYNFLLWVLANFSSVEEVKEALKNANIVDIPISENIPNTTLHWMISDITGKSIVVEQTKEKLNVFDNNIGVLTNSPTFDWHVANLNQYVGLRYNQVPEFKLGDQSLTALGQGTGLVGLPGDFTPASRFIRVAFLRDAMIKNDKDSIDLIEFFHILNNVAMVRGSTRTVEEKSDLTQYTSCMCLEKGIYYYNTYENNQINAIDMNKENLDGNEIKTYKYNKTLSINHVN
compound,measurement,setting,value
CC(CCC(=O)NCC1(CC(=O)O)CCCCC1)C1CCC2C3C(O)CC4CC(O)CCC4(C)C3CC(O)C12C (centres unmarked) [Compound (4)],IC50,IBAT [1],36 µM
same,Active uptake by bile acid transport system,IBAT [2],Active uptake
same,concentrations of (4) in bile sustained up to,[3]; bile duct-cannulated rats,up to 24 hours
same,time of maximum concentration of (4) in bile,"[3]; bile duct-cannulated rats, post-dosing",~6 h
same,gabapentin in plasma of bile duct-cannulated rats,[3],no gabapentin was detected
same,IC50,LBAT [4],8 µM
same,concentrations of intact (4) in plasma sustained out to,in vivo,24 h
same,half-life,in vivo,> 12 h
same,time of maximum concentration of intact (4) in plasma,in vivo,~8 h
same,release of gabapentin catalyzed by cholylglycine hydrolase (in words),Cholylglycine Hydrolase,Substantially faster release
same,Active uptake by bile acid transport system,LBAT [5],Active uptake
